Experimental data taken from patent publication US20110059910A1, “Novel aromatic fluoroglycoside derivatives, pharmaceuticals comprising said compounds and the use thereof” (SANOFI-AVENTIS, priority 2008, published 2011).

Target: T1, human sodium-dependent glucose transporter 2 (SGLT2, SLC5A2) (Homo sapiens, UniProt P31639)
T1 construct: Bases 21 to 2039 correspond to the complete coding region of human SGLT2; expressed in transfected cells
T1 sequence (P31639 1-672): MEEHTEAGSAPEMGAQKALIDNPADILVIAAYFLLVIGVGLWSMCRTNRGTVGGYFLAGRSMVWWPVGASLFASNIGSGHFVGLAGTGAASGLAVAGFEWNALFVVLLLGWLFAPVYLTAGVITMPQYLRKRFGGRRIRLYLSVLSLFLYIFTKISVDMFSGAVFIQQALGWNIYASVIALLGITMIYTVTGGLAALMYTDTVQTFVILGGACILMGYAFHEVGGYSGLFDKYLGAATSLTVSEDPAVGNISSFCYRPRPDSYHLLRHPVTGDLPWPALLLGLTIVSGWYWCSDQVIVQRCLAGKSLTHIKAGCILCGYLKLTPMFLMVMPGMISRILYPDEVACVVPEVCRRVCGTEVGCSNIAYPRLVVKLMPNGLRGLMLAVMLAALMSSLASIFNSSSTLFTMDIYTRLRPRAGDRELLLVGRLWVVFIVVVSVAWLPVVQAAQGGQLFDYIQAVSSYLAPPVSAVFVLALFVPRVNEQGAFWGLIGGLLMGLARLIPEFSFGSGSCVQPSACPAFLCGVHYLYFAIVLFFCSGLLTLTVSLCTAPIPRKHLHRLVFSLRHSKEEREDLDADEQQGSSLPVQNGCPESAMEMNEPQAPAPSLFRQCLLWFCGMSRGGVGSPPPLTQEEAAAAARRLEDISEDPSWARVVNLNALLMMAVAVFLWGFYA
Assay: Inhibition of the transport activity of human SGLT2 in vitro (α-MDG uptake in CHO-TRex-hSGLT2 cells)
Type: cell-based
Conditions: 50 μM α-MDG, 120 min at 37° C.
Source text: Inhibition of the Transport Activity of the Human Sodium-Dependent Glucose Transporter 2 (SGLT2, SLC5A2) In Vitro
1. Cloning of an Expression Vector for Human SGLT2
The cDNA for human SGLT2 was introduced into the pcDNA4/TO vector (Invitrogen) by means of standard methods of molecular biology as described in Sambrook et al. (Molecular Cloning, A Laboratory Manual, Second Edition). […] Bases 21 to 2039 correspond to the complete coding region of human SGLT2.
2. Production of a Recombinant Cell Line with Inducible Expression of Human SGLT2
The expression vector for human SGLT2 was introduced into CHO-TREx cells (Invitrogen) by means of FuGene6 lipofection (Roche). To select single cell clones, 600 μg/ml of Zeocin (Invitrogen) was added to the cell culture medium (nutrient mixture F-12 (Ham), (Invitrogen) supplemented with 10% fetal calf serum (FBS Gold, PAA), 10 μg/ml Blasticidin S(CN Biosciences), 100 units/ml penicillin, 100 units/ml streptomycin). The functionality of the single cell clones resulting from the selection was tested via their uptake activity for radiolabeled methyl-α-D-glucopyranoside. That cell clone with the highest uptake activity for methyl-α-D-glucopyranoside, referred to hereinafter as CHO-TRex-hSGLT2, was selected for the further experiments and cultured further in the presence of 600 μg/ml Zeocin.
3. Measurement of the Inhibiting Action of Test Substances on the Uptake of methyl-α-D-glucopyranoside (α-MDG)
CHO-TRex-hSGLT2 cells were seeded in cell culture medium in a concentration of 50 000 cells per well in Cytostar-T scintillating 96-well plates (Amersham Biosciences) and cultivated for 24 h. The expression of the recombinant human SGLT2 was induced by adding 1 μg/ml tetrazykline for a further 24 h. For α-MDG uptake experiments, the cells were washed with PBS and then starved at 37° C. in starvation medium (PBS supplemented with 10% fetal calf serum) for 1 hour. After a further washing step with transport assay buffer (140 mM sodium chloride, 2 mm potassium chloride, 1 mm magnesium chloride, 1 mm calcium chloride, 10 mm HEPES/Tris, pH 7.5), the cells were incubated at room temperature either in the absence or presence of test substances of different concentration for 15 min. The test substances were diluted correspondingly in transport assay buffer proceeding from a 10 mm stock solution in dimethyl sulfoxide (40 μl/well). The assay was subsequently started by adding 10 μl/well of a mixture of radiolabeled methyl-α-D-[U-^14C]glucopyranoside (Amersham) and unlabeled methyl-α-D-glucopyranoside (Acros). The final concentration of methyl-α-D-glucopyranoside in the assay was 50 μM. After an incubation time of 120 min at 37° C., the reaction was stopped by adding 50 μl/well of 10 mM methyl-α-D-glucopyranoside in transport assay buffer (4° C.), and the radioactivity taken up into the cells was determined in a MicroBeta Scintillation Microplate Reader (Wallac).
The half-maximum inhibiting action of the test substances (IC50 value) was determined as follows: • 1. Determination of the value for 0% inhibition. This is the measurement in the absence of substance, measured in sodium-containing transport assay buffer. • 2. Determination of the value for 100% inhibition. This is the measurement in the absence of substance, measured in sodium-free transport assay buffer (140 mM choline chloride, 2 mM potassium chloride, 1 mM magnesium chloride, 1 mM calcium chloride, 10 mM HEPES/Tris, pH7.5). • 3. Calculation of the percentage inhibition values of those measurements which were carried out in the presence of different concentrations of test substance. From this, it was then possible to determine that concentration of the test substance which reduces the uptake of the methyl-α-D-glucopyranoside by 50% (IC50 value).

IC50 [µM]	SMILES
0.012	CCc1ccc(Cc2cc(C3OC(CO)C(F)(F)C(O)C3O)ccc2Cl)cc1 (centres unmarked) [Example 1]
0.018	CCOc1ccc(Cc2cc(C3OC(CO)C(F)(F)C(O)C3O)ccc2Cl)cc1 (centres unmarked) [Example 2]
0.008	CCc1ccc(Cc2cc(C3OC(CO)C(F)C(O)C3O)ccc2Cl)cc1 (centres unmarked) [Example 3]
0.005	COc1ccc(Cc2cccc(C3OC(CO)C(F)C(O)C3O)c2)cc1 (centres unmarked) [Example 5]
0.012	CCc1ccc(Cc2cc(C3OC(CO)C(F)C(O)C3O)ccc2Cl)s1 (centres unmarked) [Example 6]
0.015	OCC1OC(c2ccc(Cl)c(Cc3cc4ccccc4s3)c2)C(O)C(O)C1F (centres unmarked) [Example 7]
1.4	CCOC(=O)OCC1OC(c2ccc(F)c(Cc3ccc(OC)cc3)c2)C(O)C(O)C1F (centres unmarked) [Example 8]
0.032	COc1ccc(Cc2cc(C3OC(CO)C(F)C(O)C3O)ccc2F)cc1 (centres unmarked) [Example 9]
1.4	CCOC(=O)OCC1OC(c2ccc(F)c(Cc3ccc(OC)cc3)c2)C(O)C(O)C1(F)F (centres unmarked) [Example 10]
0.054	COc1ccc(Cc2cc(C3OC(CO)C(F)(F)C(O)C3O)ccc2F)cc1 (centres unmarked) [Example 11]
2.7	CCOC(=O)OCC1OC(c2ccc(OC)c(Cc3ccc(OC)cc3)c2)C(O)C(O)C1F (centres unmarked) [Example 12]
0.031	COc1ccc(Cc2cc(C3OC(CO)C(F)C(O)C3O)ccc2OC)cc1 (centres unmarked) [Example 13]
0.08	COc1ccc(Cc2cc(C3OC(CO)C(F)(F)C(O)C3O)ccc2OC)cc1 (centres unmarked) [Example 15]
2.7	CCOC(=O)OCC1OC(c2ccc(Cl)c(Cc3ccc(OCC)cc3)c2)C(O)C(O)C1F (centres unmarked) [Example 16]
0.01	CCOc1ccc(Cc2cc(C3OC(CO)C(F)C(O)C3O)ccc2Cl)cc1 (centres unmarked) [Example 17]
0.897	CCOC(=O)OCC1OC(c2ccc(Cl)c(Cc3ccc(OCC)cc3)c2)C(O)C(O)C1(F)F (centres unmarked) [Example 18]
0.339	CCOC(=O)OCC1OC(c2ccc(Cl)c(Cc3ccc(OC)cc3)c2)C(O)C(O)C1(F)F (centres unmarked) [Example 21]
0.009	COc1ccc(Cc2cc(C3OC(CO)C(F)(F)C(O)C3O)ccc2Cl)cc1 (centres unmarked) [Example 22]
0.976	CCOC(=O)OCC1OC(c2ccc(Cl)c(Cc3ccc(OC(F)(F)F)cc3)c2)C(O)C(O)C1F (centres unmarked) [Example 24]
0.041	OCC1OC(c2ccc(Cl)c(Cc3ccc(OC(F)(F)F)cc3)c2)C(O)C(O)C1F (centres unmarked) [Example 25]
> 10	CCOC(=O)OCC1OC(c2ccc(Cl)c(Cc3ccc(OC(F)(F)F)cc3)c2)C(O)C(O)C1(F)F (centres unmarked) [Example 26]

IC50 [µM]	SMILES
0.199	OCC1OC(c2ccc(Cl)c(Cc3ccc(OC(F)(F)F)cc3)c2)C(O)C(O)C1(F)F (centres unmarked) [Example 27]
0.015	OC[C@H]1O[C@@H](c2ccc(Cl)c(Cc3ccc(O)cc3)c2)[C@H](O)[C@@H](O)C1(F)F [Example 30]
0.042	CC(C)Oc1ccc(Cc2cc([C@@H]3O[C@H](CO)C(F)(F)[C@H](O)[C@H]3O)ccc2Cl)cc1 [Example 31]
0.038	Cc1ccc(C2OC(CO)C(F)(F)C(O)C2O)cc1Cc1ccc(O)cc1 (centres unmarked) [Example 33]
0.027	COc1ccc(Cc2cc(C3OC(CO)C(F)(F)C(O)C3O)ccc2C)cc1 (centres unmarked) [Example 34]
12.6	CCOC(=O)OCC1OC(c2ccc(Cl)c(Cc3ccc(OC)cn3)c2)C(O)C(O)C1F (centres unmarked) [Example 35]
0.304	COc1ccc(Cc2cc(C3OC(CO)C(F)C(O)C3O)ccc2Cl)nc1 (centres unmarked) [Example 36]
11.2	CCOC(=O)OCC1OC(c2ccc(Cl)c(Cc3ccc(OC)cn3)c2)C(O)C(O)C1(F)F (centres unmarked) [Example 37]
0.393	COc1ccc(Cc2cc(C3OC(CO)C(F)(F)C(O)C3O)ccc2Cl)nc1 (centres unmarked) [Example 38]
19.8	CCOC(=O)OC[C@H]1O[C@@H](c2ccc(OC(F)(F)F)c(Cc3ccc(OC)cc3)c2)[C@H](O)[C@@H](O)[C@@H]1F [Example 39]
0.412	COc1ccc(Cc2cc([C@@H]3O[C@H](CO)[C@@H](F)[C@H](O)[C@H]3O)ccc2OC(F)(F)F)cc1 [Example 40]
12.8	CCOC(=O)OC[C@H]1O[C@@H](c2ccc(OC(F)(F)F)c(Cc3ccc(OC)cc3)c2)[C@H](O)[C@@H](O)C1(F)F [Example 41]
0.982	COc1ccc(Cc2cc([C@@H]3O[C@H](CO)C(F)(F)[C@H](O)[C@H]3O)ccc2OC(F)(F)F)cc1 [Example 42]
0.024	OC[C@H]1O[C@@H](c2ccc(Cl)c(Cc3ccc(Cl)cc3)c2)[C@H](O)[C@@H](O)[C@@H]1F [Example 44]
0.075	OC[C@H]1O[C@@H](c2ccc(Cl)c(Cc3ccc(Cl)cc3)c2)[C@H](O)[C@@H](O)C1(F)F [Example 46]
0.074	COc1ccc(Cc2cc([C@@H]3O[C@H](CO)[C@@H](F)[C@H](O)[C@H]3O)ccc2C(F)(F)F)cc1 [Example 48]
8	CCOC(=O)OC[C@H]1O[C@@H](c2ccc(C(F)(F)F)c(Cc3ccc(OC)cc3)c2)[C@H](O)[C@@H](O)C1(F)F [Example 49]
0.154	COc1ccc(Cc2cc([C@@H]3O[C@H](CO)C(F)(F)[C@H](O)[C@H]3O)ccc2C(F)(F)F)cc1 [Example 50]
0.0094	COc1ccc(Cc2cc(C3OC(CO)C(F)C(O)C3O)ccc2Br)cc1 (centres unmarked) [Example 56]
0.01	CCc1ccc(Cc2cc(C3OC(CO)C(F)C(O)C3O)ccc2C)cc1 (centres unmarked) [Example 61]
